In patent US20050159362A1, “Mediators of reverse cholesterol transport for the treatment of hypercholesterolemia” (priority 2003, published 2005):
“Also recorded” adds a separate entry of the source. Square brackets hold non-standard residues; d marks the D form. Ends that are not written are not given here. Bip = N[C@@H](Cc1ccc(-c2ccccc2)cc1)C(=O)O

Assays:
[1] = tested on: C57BL/6J mice fed a cholate-containing high fat diet (HFC); test: Effect of single bolus injections of peptides on plasma lipoprotein profile; assay type: in vivo, mouse
Experimental: Effect of single bolus injections of peptides on plasma lipoprotein profile—To monitor effect of peptides on plasma cholesterol levels and its distribution among the different lipoprotein classes, the nonradioiodinated free peptides (100 μg in 100 μl of PBS) were injected intravenously into the tail vein of nonfasted C57BL/6J wild type mice, which have been placed on high fat cholate-containing diet four days prior to experiment. To control for the effect of external- and/or internal nonspecific factors (stress of handling, anesthetic, blood drawing) on plasma lipoprotein profile, a similar group of mice was injected with only PBS. Different groups of mice were sacrificed before and at various times after injections and blood was drawn by retroorbital puncture and subjected to low speed centrifugation at 4° C. to obtain the plasma. Plasma samples were obtained, combined within each group (4 mice), and subjected to gel filtration chromatography on a Superose 6 (HR 10/30 column, FPLC) to monitor cholesterol lipoproteins distribution and agarose gel electrophoresis (Paragon Systems) to monitor phospholipid lipoproteins distribution.
(§1) To monitor cholesterol distribution among the different lipoprotein classes, plasma samples were combined within each group (usually 4-6 mice per group), and subjected to FPLC size-exclusion chromatography on a Superose 6 (HR 10/30 column, Amersham-Pharmacia) using an isocratic 10 mM Tris/150 mM NaCl/1 mM EDTA buffer system at a flow rate of 0.15 ml/min. Fractions (0.15 ml) were collected into 96-well plates containing 0.055 ml of 1:1 mixture of 0.5% Triton X-100 and 20 mM Sodium Cholate. Total and free cholesterol in plasma fractions was determined by using the fluorescent method of W. Gamble, et al. (Gamble et al., 1978, Journal Lipid Res., 16: 1068-1070). 96-well plates were read on Dual-Scanning Microplate Spectrofluorometer Gemini XS (Molecular Devices). The areas under the lipoprotein peaks were quantified by using Unicorn software (Version 3.21.02). The amount of esterified cholesterol was assessed by subtraction of free cholesterol from total cholesterol.
Mice were divided into two groups—control and experimental. Each group contained 4 mice.
Effect of “frame-shift” derived peptides on lipoprotein metabolism (Single bolus injections)—We performed the functional frame-shift of the entire region of mouse apolipoprotein A1 where SEQ ID NO: 1 derived from (helix 6, Pro166-Pro188, precursor protein). Frame-shift was done in both directions (form N-to C- and from C- to N-Terminus). […] Mice were divided into two groups—control and experimental. Each group contained 4 mice. […] The data are expressed as percent of change of total cholesterol (TC) content of VLDL, IDL/LDL, and HDL classes in experimental mice relative to control (PBS injected) mice.
Effect of chemically modified derivatives of SEQ ID NO: 1 and peptides derived from other mouse apoA1 regions on mouse plasma lipoprotein profile (Single bolus injections)—To increase SEQ ID NO: 1 hydrophobicity, Phenyl Acetyl or Pivalic Acid were attached to N-Terminal Tyr residue of SEQ ID NO: 1, or Tyr residue was removed from N-terminus. […] Mice were divided into two groups—control and experimental. Each group contained 4 mice. […] The data are expressed as percent of change of total cholesterol (TC) content of VLDL, IDL/LDL, and HDL classes in experimental mice relative to control (PBS injected) mice.

[2] = tested on: LDLR−/− mice and A-I−/− mice; test: Plasma clearance and tissue distribution of SEQ ID NO: 1-125I-LDL complexes; assay type: in vivo, mouse
Experimental: Plasma clearance and tissue distribution of SEQ ID NO: 1-LDL complexes—^125I-LDL (0.2 nmol) was incubated at 37° C. in PBS alone, or with 4 nmol of SEQ ID NO: 1. After 2 h, the mixture was dialyzed against PBS containing […] BHT. ^125I-LDL alone or SEQ ID NO: 1/^125I-LDL complex were injected intravenously into the tail vein of nonfasted mice under metofane anesthesia. Mice were bled at the certain time points after the injection by retroorbital bleeding into heparinized tubes. The blood was subjected to low speed centrifugation (1800 g, 4° C.) and the 10% TCA precipitable radioactivity of the plasma was measured. […] An incision was made in the […] vena cava to clear the perfusate. Within 15 min, the liver, kidneys, spleen, and heart were removed, cleaned, weighed, and counted for ^125I radioactivity. Entire organs were counted with exception of liver, which was counted in pieces. Radioactivity detected per organ or per 1 g of wet tissue was expressed as a percent of the initial total injected radioactivity that was TCA precipitable.
To determine if SEQ ID NO: 1 can associate with human LDL, we attempted to form the complex of ^125I-SEQ ID NO: 1 with isolated human LDL. […] To determine if SEQ ID NQ: 1 influences lipoprotein transport to the liver, we injected the ^125-LDL alone or in complex with SEQ ID NO: 1 into LDLR−/− mice (no LDL-receptor) and A-I−/− mice, which have a functional hepatic LDL-receptor. […] To assess the contribution of LDL-receptors alone, the binding of [^125I-LDL] and [125I-LDL-SEQ ID NO: 1] to the liver of LDLR−/− mice was subtracted from their respective binding to the liver of A-I−/− mice, and data were normalized per gram of wet tissue. […] Influence of SEQ ID NO: 1 on ^125I-LDL binding to kidney, spleen, lung, heart, testis, adrenal, and prostate is shown in FIG. 8. It is noteworthy that no increase in 125I-LDL-SEQ ID NO: 1 complex binding to the heart was observed.

[3] = tested on: C57BL/6J mice switched on HFC diet; test: Effect of time-released peptides on plasma lipoprotein profile (20 hrs pumps); assay type: in vivo, mouse; settings: for plasma HDL cholesterol levels / plasma levels of HDL phospholipids / plasma levels of low density lipoproteins: 20 hrs continuous infusion, pumps 8 ul/hr; for activity upon infusion into mice for 20 hrs: 20 hrs infusion, FIG. 16
Experimental: (§2) Effect of time-released peptides on plasma lipoprotein profile—To determine relatively long-term effect of SEQ ID NO: 1 and its derivatives on plasma lipoprotein profile, the Alzet Mini-Osmotic pumps (220 ul), containing various peptides or PBS, were surgically inserted in canulated Chow fed C57BL/6J mice. The pumps with flow rate equal to 8 μl/hr were used for 20 hrs continuous infusion of peptides. The pumps with flow rate equal to 1 μl/hr were used for 160 hrs continuous infusions of peptides. At the end point (20 or 160 hrs after pumps insertion) mice were sacrificed, and blood was drawn by retroorbital puncture and subjected to low speed centrifugation at 4° C. to obtain the plasma. Bile was immediately removed from gall bladders using insulin syringes, and stored on ice until use.
as §1
To monitor the distribution of phospholipid among the lipoprotein classes, plasma samples were combined within each group (usually 4-6 mice per group), and subjected to agarose gel electrophoresis, which was carried out using the Paragon system (Beckman Coulter) according to manufacturer's instructions, with following staining with Paragon Lipo Stain (Beckman Coulter 655910). Once dried, the gels were scanned on Personal Densitometer SI (Molecular Dynamics) and bands were quantified using ImageQuant™ software (Verssion 5.2).
Impact of SEQ ID NO: 1 on lipoprotein metabolism (20 hrs pumps)—To determine relatively long-term effect of SEQ ID NO: 1 on plasma lipoprotein profile, the Alzet Mini-Osmotic pumps, containing SEQ ID NO: 1 or PBS, were surgically inserted in canculated Chow fed C57BL/6J mice. The pumps flow rate was equal to 8 ul per hr, which provided the delivery amount of SEQ ID NO: 1 per hr as indicated for FIG. 9. Mice were switched on HFC diet immediately after surgery. 20 hrs later plasma samples were obtained, combined within each group (4 to 6 mice), and subjected to FPLC analysis and agarose gel electrophoresis for assessment of cholesterol and phospholipid distribution among the lipoprotein classes. […] The LDL lowering effect was attenuated with increase of SEQ ID NO: 1 concentration. This phenomenon can be explained by self-competition between free and LDL-bound form of SEQ ID NO: 1 for the liver lipoprotein binding sites. In contrast, HDL cholesterol levels were positively correlated with SEQ ID NO: 1 concentration.
Impact of SEQ ID NO: 1 structural derivatives (3 to 13 amino acid residues) on lipoprotein metabolism (20 hrs pumps)—To determine relatively long-term effect on plasma lipoprotein profile, the Alzet Mini-osmotic pumps, containing SEQ ID NO: 1 derivatives or PBS, were surgically inserted in canulated Chow fed C57BL/6J mice. The pumps flow rate was equal to 8 ul per hr, which provided the deliveries of 30-40 μg of peptides per hr. Mice were switched on HFC diet immediately after surgery. […]

PLTP = biological target: T1, PLTP (Mus musculus, UniProt P55065); test: Effect of peptides on PLTP activity; assay type: biochemical; settings: mouse plasma incubated with 0.4, 2, 5 and 10 ug peptide at RT for 30 min
T1 construct: Mouse plasma (source of enzyme), obtained from Chow fed mice and from mice fed with high fat cholate containing diet; from tissue; host or cells: serum/plasma of C57BL/6J male mice (chow-fed or high fat cholate diet for 4 days)
T1 sequence (P55065 18-493): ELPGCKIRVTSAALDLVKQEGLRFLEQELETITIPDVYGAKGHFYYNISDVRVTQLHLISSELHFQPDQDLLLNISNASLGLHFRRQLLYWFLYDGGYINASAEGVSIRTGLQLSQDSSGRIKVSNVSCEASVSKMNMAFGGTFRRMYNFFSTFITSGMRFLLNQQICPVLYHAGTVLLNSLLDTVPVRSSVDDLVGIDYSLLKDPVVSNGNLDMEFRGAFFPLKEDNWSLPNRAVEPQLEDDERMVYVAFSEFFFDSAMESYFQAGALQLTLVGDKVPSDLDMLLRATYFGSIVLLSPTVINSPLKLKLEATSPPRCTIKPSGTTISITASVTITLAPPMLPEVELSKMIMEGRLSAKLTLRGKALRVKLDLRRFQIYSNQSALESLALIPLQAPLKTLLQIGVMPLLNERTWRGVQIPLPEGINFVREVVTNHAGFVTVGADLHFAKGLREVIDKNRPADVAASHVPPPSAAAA
Experimental: Effect of peptides on PLTP activity—PLTP activity was measured using a fluorescent kit (Cardiovascular Targets, Inc., P7700). PLTP source was serum obtained from C57BL/6J male 2 months old mice, which were Chow-fed or maintained on high fat cholate containing diet for four days. 1× Mouse serum was preincubated with PBS or 0.4, 2, 5, and 10 μg of peptides at RT for 30 minutes. Following preincubation, the mixture was diluted 10 times, and 10 μl ([…] nest serum) was immediately mixed into reaction wells of pre-chilled 96-well plate, containing assay system (Cardiovascular Targets, Inc., P7700). The microplates were read at 37° C. in SpectraMax 190 (Molecular Devices), for 30 minutes.
Mouse plasma (source of enzyme), obtained from Chow fed mice and from mice fed with high fat cholate containing diet for 4 days, was incubated with PBS or the peptide of SEQ ID Nos: 34, 86, 91 and 96 (0.4, 2, 5, and 10 ug) at RT for 30 min. Reaction was started by addition of 0.3 μl of plasma/PBS or plasma/SEQ ID NO mixture to 100 μl of assay solution containing fluorescent substrate. PLTP activity was monitored on Spectrofluorometer for 20 min at 37° C. Each bar represents the Mean±SEM obtained from 3 independent experiments.

[4] = tested on: C57BL/6J mice switched on HFC diet; test: Long term effect of peptides on lipoprotein metabolism (7 days pumps, 160 hrs); assay type: in vivo, mouse; settings: 160 hrs infusion, pumps 1 μl/hr
Experimental: as §2
To determine HDL cholesterol, low density lipoproteins were precipitated from plasma using a modified Burstein-Samaille method according to manufacturer's instructions (Boehringer Mannheim 543004), modifying only the ratio of reagent:water from 4:1 to 4:2. Gall bladder derived bile was diluted twice with deionized water, and cholesterol was determined using. Infinity reagents. 3α-Hydroxybile acids were quantified uiising a colorimetric-enzymatic method (Sigma 450).
as §1, with “Fractions (0.15 ml) were collected into 96-well plates containing 0.055 ml of 1:1 mixture of 0.5% Triton X-100 and 20 mM Sodium Cholate.” left out, “cholesterol. […]” for “cholesterol.”

## YEFRDRMRTH [SEQ ID NO: 1]
[1]
  duration of effect after single bolus injection: up to 180 min
[1]; single bolus i.v. 100 μg
  impact on plasma HDL-C levels: slight but significant decrease
[1]; single bolus i.v. 100 μg, entire time course
  impact on VLDL level: no significant impact
[1]; single bolus i.v. 100 μg, 90, 120 and 180 min after injection
  impact on plasma IDL/LDL, low density lipoproteins: Significant lowering; also recorded: strongest impact
other
  in vivo half-life: 2 to 3 h
[2]; ApoA1−/− mice, compared to 125I-LDL alone
  plasma clearance of 125I-LDL-SEQ ID NO: 1 complex: enhanced plasma clearance
[2]; both mouse genotypes (LDLR−/− and A-I−/−), compared to 125I-LDL alone
  liver-bound 125I-LDL after complexing with SEQ ID NO: 1: significant increase
[2]; compared to 125I-LDL alone, per gram of wet tissue
  complex binding to the LDL-receptors (liver binding in A-I−/− minus LDLR−/− mice): substantial increase
[2]; mouse, in vivo
  125I-LDL-SEQ ID NO: 1 complex binding to the heart: no increase
[3]
  plasma HDL cholesterol levels: elevated
  plasma levels of HDL phospholipids: elevated
  plasma levels of low density lipoproteins: dramatic decrease

## efr ([dE]-[dF]-[dR]) [SEQ ID NO: 96]
PLTP
  effect on PLTP activity: activation of PLTP

## rDRMRTh ([dR]DRMRT[dH]) [SEQ ID NO: 35]
PLTP
  effect on PLTP activity: did not have any significant effect
[3]
  plasma HDL cholesterol levels: decrease
  plasma levels of HDL phospholipids: decrease
  plasma levels of low density lipoproteins: increase
  activity upon infusion into mice for 20 hrs: did not show significant activity

## EEFRDR [SEQ ID NO: 87]
[3]
  plasma HDL cholesterol levels: decrease
  plasma levels of HDL phospholipids: decrease
  plasma levels of low density lipoproteins: increase

## erf ([dE]-[dR]-[dF]) [SEQ ID NO: 86]
[4]
  amount of phospholipid in the HDL zone: increase
PLTP
  effect on PLTP activity: activation of PLTP

## E-BIP-R (Glu-[Bip]-Arg) [SEQ ID NO: 91]
[4]
  amount of phospholipid in the HDL zone: increase
PLTP
  effect on PLTP activity: activation of PLTP

## dRMRTH ([dD]RMRTH) [SEQ ID NO: 36]
PLTP
  effect on PLTP activity: did not have any significant effect
[3]
  activity upon infusion into mice for 20 hrs: did not show significant activity

## THVDSLRTQLAP (Ac-THVDSLRTQLAP-NH2) [SEQ ID NO: 7]
[1]; single bolus i.v. 100 μg
  impact on plasma HDL-C levels: marked HDL-C elevating properties

## EFR [SEQ ID NO: 34]
[4]
  amount of phospholipid in the HDL zone: increase
PLTP
  effect on PLTP activity: activation of PLTP
